The test system of test [1] is Behavioral Despair in mice. In words: Reduction of behavioral despair in vivo (modified Porsolt method). Also on record: species or system mouse (Swiss-Webster CD). Conditions: for ED50: Mus musculus, sc, mice, subcutaneous. Here is the method: A modification of the procedure described by Porsolt et al., Arch. Int. […] (Charles River Laboratories, Inc.; Wilmington, Mass.) were housed under standard laboratory conditions for at least one week prior to experimentation. Groups of 10 mice were then injected subcutaneously with either a given dosage of the named test compound or vehicle (5% Emulphor: 5% ethanol: 90% normal saline). One hour later the mice were placed individually in 1 liter beakers containing 7 cm. of 25° C. water. Beginning at 2 min. after immersion, each mouse was observed every 30 sec. for the presence of immobility, characterized as floating motionless in the water. A total of ten observations were made, each being scored as "0=animal moving, swimming, attempting to escape" or "1=animal immobile". The number of positive observations for each mouse was then totaled and a mean immobility score calculated for the group of ten.

In test [2] the test system is Synaptosomal Uptake of Norepinephrine (NE), rat hypothalmus. In words: Blockade of synaptosomal uptake of norepinephrine (NE) in vitro. It is filed as biochemical, rat (Sprague-Dawley CD). Here is the method: (§1) Sprague-Dawley CD male rats weighing 180-220 g. (Charles River Laboratories, Inc.; Wilmington, Mass.) were used in this procedure. A crude synaptosomal fraction of rat corpus striatum (for 5HT and DA uptake) or hypothalmus (for NE uptake) tissue was prepared by homogenizing tissue (25 ml./g. wet) in ice-cold 0.32M sucrose containing 1 mg./ml. glucose, 0.0001M EDTA and tris(hydroxymethyl)aminomethane to pH 7.4. The homogenate was centrifuged at 1000 × g for 10 min. at 0°-4° C., the pellet discarded and the supernatant centrifuged at 17,000 × g for 20 min. at 0°-4° C. The resulting pellet was resuspended in the ice-cold 0.32M sucrose pH 7.4 solution at 10 ml./g. original tissue (wet) for corpus striatum and 5 ml./g. original tissue (wet) for hypothalmus. […] After incubation, the mixtures were filtered through 0.45 micron Millipore filters and the filters washed with the incubation buffer. […] Uptake was calculated as picomoles 5HT, DA or NE per mg. protein (protein was determined by measurement with Folin phenol reagent).

For test [3], the system named is Synaptosomal Uptake of Serotonin (5HT), rat corpus striatum. Kind of test: Blockade of synaptosomal uptake of serotonin (5HT) in vitro. The format is biochemical, rat (Sprague-Dawley CD). Conditions: 5HT uptake, Examples 26-49. Here is the method: as §1
Test [4] concerns Synaptosomal Uptake of Dopamine (DA), rat corpus striatum. Kind of test: Blockade of synaptosomal uptake of dopamine (DA) in vitro. It is filed as biochemical, rat (Sprague-Dawley CD). Here is the method: as §1
Test [5] relates to 5-hydroxytryptophan-induced tremors in mice. In words: Potentiation of 5-hydroxytryptophan-induced behavioral symptoms (tremors) in vivo. Conditions: Mus musculus. More on the design: species or system mouse (Swiss-Webster CD).
Procedure: The mice were rated for the presence of this symptom by a "blinded observer" at 10-20 min. after 5HTP treatment.
Where [6] appears, read: po, read-out: ED50 (tremors), no observed tremors.
[7] abbreviates: Examples 71-77, read-out: MPE50.
Setting [8] is: po, 1 h, read-out: ED50 (tremors).
[9] abbreviates: mice, oral, read-out: ED50 (tremors), no observed tremors.
[10] abbreviates: 1 h, mice, oral, 100 mg./kg. i.p. 5HTP one hour later, read-out: ED50 (tremors).

Counter-ions that a name gives are not always drawn. Like-named read-outs stand apart in the source and are kept apart here.

Take `CN[C@H]1CC[C@@H](c2ccccc2)c2ccccc21` (relative stereo) [Comparative Example, Cis(1S) (1R)N--methyl-4-phenyl-1,2,3,4-tetrahydro-1-naphthalenamin hydrochloride, reference compound]: the ED50 in test [1] (read-out: MPE50, footnoted no observed effect on immobility) is over 32 mg/kg; in test [5] (setting [6]) it was over 32 mg/kg. Further, the figures for the IC50 in test [2] (Examples 26-49), in test [3] and in test [4] (Examples 26-49) were 1900 nM, 3500 nM and 5100 nM, respectively.
`CN[C@H]1CC[C@@H](c2ccc(Cl)c(Cl)c2)c2ccccc21` (relative stereo) [Example 1, Cis-(1S)(1R)-N-methyl-4-(3,4-dichlorophenyl)-1,2,3,4-tetrahydro-1-naphthalenamine Hvdrochloride]: the ED50 in test [1] (setting [7]) was 4.5 mg/kg; in test [5] (setting [8]) it was 3.2 to 5.6 mg/kg.
For the compound `CN[C@@H]1CC[C@H](c2ccc(Cl)cc2)c2ccccc21.Cl` (relative stereo) [Example 4, Cis-N-methyl-4-(4-chlorophenyl)-1,2,3,4-tetrahydro-1-naphthalenamine Hydrochloride], the ED50 in test [5] (setting [8]) is 10 to 32 mg/kg.
Take `CN[C@@H]1CC[C@H](c2ccc(Cl)cc2)c2ccccc21.Cl` (relative stereo) [Example 5, Cis-N-methyl-4-(4-chlorophenyl)-1,2,3,4-tetrahydro-1-naphthalenamine Hydrochloride]: the IC50 (usually the point on the concentration scale where inhibition reaches its midpoint) in test [2] (Examples 26-49, Hydrochloride) was 5000 nM. The ED50 in test [5] (setting [9]) was over 10 mg/kg.
Take `CN[C@@H]1CC[C@H](c2ccc(Cl)cc2)c2ccccc21` (relative stereo) [Example 6, Cis-N-methyl-4-(4-chlorophenyl)-1,2,3,4-tetrahydro-1-naphthalenamine Hydrochloride]: the IC50 stood at 1200 nM in test [2] (Examples 26-49, Hydrochloride) and 1500 nM in test [4] (Examples 26-49, Hydrochloride).
On to `CN[C@H]1CC[C@@H](c2ccc(F)cc2)c2ccccc21` (relative stereo) [Example 7, Cis-(1S)(1R)-N-methyl-4-(4-fluorophenyl)-1,2,3,4-tetrahydro-1-naphthalenamine Hydrochloride], for which the ED50 in test [1] (setting [7]) is 138 mg/kg; in test [5] (setting [6]), over 32 mg/kg. The IC50 in test [2] (Examples 26-49) was 2300 nM; in test [4] (Examples 26-49) it was 4700 nM.
Turning to `CN[C@H]1CC[C@@H](c2ccc(C(F)(F)F)cc2)c2ccccc21` (relative stereo) [Example 8], the IC50 was determined as 9800 nM in test [2] (Examples 26-49), 820 nM in test [3] and 7800 nM in test [4] (Examples 26-49). In addition, the ED50 in test [5] (setting [10]) was in the range of 10 to 32 mg/kg.
Take `CN[C@@H]1CC[C@H](c2cccc(C(F)(F)F)c2)c2ccccc21` (relative stereo) [Example 11, Cis-N-methyl-4-(3-trifluoromethyl-phenyl)-1,2,3,4-tetrahydro-1-naphthalenamine]: the “% MPE” value in test [1] (32.0 mg./kg. subcutaneous) was determined as 45%; in test [1] (56.0 mg./kg. subcutaneous, apparent overdosage), 10%. For the same compound, the ED50 in test [1] (setting [7]) is 42 mg/kg; in test [5] (setting [8]), 10 to 32 mg/kg. The IC50 in test [2] (Examples 26-49) amounted to 2500 nM; in test [3], 250 nM; in test [4] (Examples 26-49), 2500 nM.
`CN[C@@H]1CC[C@H](c2ccc(Cl)c(C(F)(F)F)c2)c2ccccc21` (relative stereo) [Example 12, Cis-N-methyl-4-(3-trifluoromethyl-4-chlorophenyl)-1,2,3,4-tetrahydro-1-naphthalenamine] gave an IC50 in test [4] (Examples 26-49) of 1500 nM. In addition, the ED50 in test [5] (setting [10]) was in the range of 1 to 3.2 mg/kg.
Turning to `CN[C@H]1CC[C@@H](c2ccc(Cl)cc2)c2ccc(Cl)cc21` (relative stereo) [Example 15, Cis-(1S)(1R)-N-methyl-4-(4-chlorophenyl)-7-chloro-1,2,3,4-tetrahydro-1-naphthalenamine Hydrochloride], the IC50 was determined as 2200 nM in test [2] (Examples 26-49), 300 nM in test [3] and 1300 nM in test [4] (Examples 26-49).
On the same counts, the results for `CN[C@H]1CC[C@@H](c2ccc(Br)cc2)c2ccccc21` (relative stereo) [Example 16, Cis-(1S)(1R)-N-methyl-4-(4-bromophenyl)-1,2,3,4-tetrahydro-1-naphthalenamine Hydrochloride] are 1400 nM, 190 nM and 1600 nM.
For `CN[C@H]1CC[C@@H](c2ccc(OC)cc2)c2ccccc21` (relative stereo) [Example 17, Cis-(1S)(1R)-N-methyl-4-(4-methoxyphenyl)-1,2,3,4-tetrahydro-1-naphthalenamine Hydrochloride], the IC50 in test [2] (Examples 26-49) was determined as 3000 nM; in test [4] (Examples 26-49), 4200 nM.
For the compound `CN[C@H]1CC[C@@H](c2ccccc2OC)c2ccccc21` (relative stereo) [Example 18], the ED50 in test [1] (setting [7]) and in test [5] (setting [9]) was over 32 mg/kg in each case. The IC50 in test [2] (Examples 26-49) worked out at 2300 nM; in test [3], 4200 nM; in test [4] (Examples 26-49) it was 11000 nM.
Turning to `CN[C@H]1CC[C@@H](c2cccc(OC)c2)c2ccccc21` (relative stereo) [Example 19], the IC50 in test [2] (Examples 26-49) came to 1400 nM; in test [3] it was 7600 nM; in test [4] (Examples 26-49), 5000 nM.
On to `CN[C@H]1CC[C@@H](c2ccc(Cl)cc2Cl)c2ccccc21` (relative stereo) [Example 20, Cis-(1S)(1R)-N-methyl-4-(2,4-dichlorophenyl)-1,2,3,4-tetrahydro-1-naphthalenamine Hydrochloride], for which the IC50 was 310 nM in test [2] (Examples 26-49) and 1700 nM in test [4] (Examples 26-49).
Consider `CN[C@H]1CC[C@@H](c2ccc(Cl)cc2)c2ccc(OC)cc21` (relative stereo) [Example 21, Cis-(1S) (1R)-N-methyl-4-(4-chlorophenyl)-7-methoxy-1,2,3,4-tetrahydro-1-naphthalenamine Hydrochloride], for which the IC50 in test [2] (Examples 26-49) came to 470 nM; in test [3], 190 nM; in test [4] (Examples 26-49), 440 nM.
Consider `CN(C)[C@H]1CC[C@@H](c2ccc(C(F)(F)F)cc2)c2ccccc21` (relative stereo) [Example 23], for which the IC50 turned out to be 14000 nM in test [2] (Examples 26-49) and 12000 nM in test [4] (Examples 26-49). Moreover, the ED50 in test [5] (setting [8]) was in the range of 32 to 56 mg/kg.
Turning to `CN(C)[C@@H]1CC[C@H](c2ccc(Cl)cc2)c2ccccc21` (relative stereo) [Example 24, Cis-N,N-dimethyl-4-(4-chlorophenyl)-1,2,3,4-tetrahydro-1-naphthalenamine], the IC50 was determined as 1200 nM in test [2] (Examples 26-49) and 5600 nM in test [4] (Examples 26-49).
Turning to `CN[C@H]1CC[C@@H](c2ccc(Cl)c(Cl)c2)c2ccccc21.Cl` [Example 2, Cis-(1S)-N-methyl-4-(3,4-dichlorophenyl)-1,2,3,4-tetrahydro-1-naphthalenamine Hydrochloride], the “% MPE” value in test [1] (0.10 mg./kg. subcutaneous) was 7.9%; in test [1] (0.32 mg./kg. subcutaneous), 24%; in test [1] (1.00 mg./kg. subcutaneous), 17%; in test [1] (3.20 mg./kg. subcutaneous), 41%; in test [1] (10.0 mg./kg. subcutaneous), 57%; in test [1] (17.8 mg./kg. subcutaneous) it was 57%. In addition, the “% MPE” value in test [1] (32.0 mg./kg. subcutaneous) is listed as 66%.
Regarding `CN[C@H]1CC[C@@H](c2ccc(C(F)(F)F)cc2)c2ccccc21` [Example 9], the IC50 in test [2] (Examples 26-49) is 9400 nM; in test [4] (Examples 26-49), 6400 nM. The ED50 in test [5] (setting [10]) was under 32 mg/kg.
As for `CN[C@@H]1CC[C@H](c2ccc(C(F)(F)F)cc2)c2ccccc21` [Example 10], the IC50 was found to be 12000 nM in test [2] (Examples 26-49), 2200 nM in test [3] and 5600 nM in test [4] (Examples 26-49). Besides, the ED50 in test [5] (setting [9]) is over 32 mg/kg.
Take `CN[C@H]1CC[C@@H](c2ccc(Cl)c(C(F)(F)F)c2)c2ccccc21` [Example 13]: the IC50 in test [2] (Examples 26-49) came out at 3600 nM; in test [4] (Examples 26-49), 6800 nM. Also, the ED50 in test [5] (setting [8]) lay in the range of 3.2 to 10 mg/kg.
`CN[C@@H]1CC[C@H](c2ccc(Cl)c(C(F)(F)F)c2)c2ccccc21` [Example 14]: the IC50 in test [2] (Examples 26-49) is 2400 nM; in test [4] (Examples 26-49) it was 550 nM. The ED50 in test [5] (setting [9]) is over 32 mg/kg.

The record behind these values is patent US4536518A, “Antidepressant derivatives of cis-4-phenyl-1,2,3,4-tetrahydro-1-naphthalenamine” (priority 1979, dated 1985).
